The values below come from patent US8637499B2, “Benzoxazepines as inhibitors of PI3K/mTOR and methods of their use and manufacture” (Exelixis, Inc., priority 2009, dated 2014).

pIC50: −log10 of the molar value. Some results are limits rather than exact numbers.

PI3Kα, sequence (P42336 whole entry): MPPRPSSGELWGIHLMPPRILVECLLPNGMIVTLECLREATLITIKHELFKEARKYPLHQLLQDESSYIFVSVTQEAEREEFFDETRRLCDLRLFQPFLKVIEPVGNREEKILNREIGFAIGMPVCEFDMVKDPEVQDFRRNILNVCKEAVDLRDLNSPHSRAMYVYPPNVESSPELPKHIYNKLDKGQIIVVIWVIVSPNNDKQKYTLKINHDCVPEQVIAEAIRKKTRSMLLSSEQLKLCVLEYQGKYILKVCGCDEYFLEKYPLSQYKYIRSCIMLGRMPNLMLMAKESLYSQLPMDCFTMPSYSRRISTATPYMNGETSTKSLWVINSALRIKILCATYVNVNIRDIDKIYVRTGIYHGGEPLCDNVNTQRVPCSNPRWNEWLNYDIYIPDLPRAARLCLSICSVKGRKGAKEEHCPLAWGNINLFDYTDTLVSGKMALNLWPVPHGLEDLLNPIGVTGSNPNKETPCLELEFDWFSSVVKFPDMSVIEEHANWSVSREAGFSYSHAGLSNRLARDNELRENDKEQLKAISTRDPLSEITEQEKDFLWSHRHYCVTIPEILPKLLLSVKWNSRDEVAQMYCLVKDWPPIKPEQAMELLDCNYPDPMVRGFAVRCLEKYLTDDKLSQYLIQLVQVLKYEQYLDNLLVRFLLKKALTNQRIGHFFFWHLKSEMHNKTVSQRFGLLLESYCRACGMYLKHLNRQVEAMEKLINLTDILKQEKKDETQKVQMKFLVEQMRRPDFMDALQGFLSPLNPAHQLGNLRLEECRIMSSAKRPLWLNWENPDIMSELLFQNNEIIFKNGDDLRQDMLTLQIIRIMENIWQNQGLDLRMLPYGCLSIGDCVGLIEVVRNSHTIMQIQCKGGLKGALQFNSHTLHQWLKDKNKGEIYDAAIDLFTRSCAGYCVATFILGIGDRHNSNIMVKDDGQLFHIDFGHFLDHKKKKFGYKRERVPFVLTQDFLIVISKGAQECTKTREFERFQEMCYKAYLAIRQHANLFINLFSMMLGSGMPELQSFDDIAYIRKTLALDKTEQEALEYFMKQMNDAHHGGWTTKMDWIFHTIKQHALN
PI3Kα, sequence (P27986 whole entry partner): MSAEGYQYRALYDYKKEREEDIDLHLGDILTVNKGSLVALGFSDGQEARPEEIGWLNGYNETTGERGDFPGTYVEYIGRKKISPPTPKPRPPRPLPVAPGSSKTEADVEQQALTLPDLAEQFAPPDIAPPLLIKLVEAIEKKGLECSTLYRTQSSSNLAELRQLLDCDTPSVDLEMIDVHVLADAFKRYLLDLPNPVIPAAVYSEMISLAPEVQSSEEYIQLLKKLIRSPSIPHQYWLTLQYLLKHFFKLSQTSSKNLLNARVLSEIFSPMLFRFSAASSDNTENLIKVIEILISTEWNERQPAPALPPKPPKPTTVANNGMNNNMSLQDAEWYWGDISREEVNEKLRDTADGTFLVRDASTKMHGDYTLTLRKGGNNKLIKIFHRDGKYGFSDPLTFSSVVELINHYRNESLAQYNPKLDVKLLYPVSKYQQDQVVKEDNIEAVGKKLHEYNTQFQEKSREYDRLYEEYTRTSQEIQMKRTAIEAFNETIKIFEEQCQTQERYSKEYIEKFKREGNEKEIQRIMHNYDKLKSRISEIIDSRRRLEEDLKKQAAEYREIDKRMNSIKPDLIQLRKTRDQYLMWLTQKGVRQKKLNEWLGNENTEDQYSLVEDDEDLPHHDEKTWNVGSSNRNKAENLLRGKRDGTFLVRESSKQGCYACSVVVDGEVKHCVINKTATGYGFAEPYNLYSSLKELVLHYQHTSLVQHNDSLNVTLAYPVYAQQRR

The first test has as its target PI3Kα (Homo sapiens, UniProt P42336). Description: PI3K Biochemical Assays (ATP consumption, luciferase-luciferin chemiluminescence). The conditions noted are these: PI3Kα 1.5 nM, ATP 1 μM, PIP2 10 μM; percent of ATP consumed. The method, then: PI3Kα activity is measured as the percent of ATP consumed following the kinase reaction using luciferase-luciferin-coupled chemiluminescence. Reactions were conducted in 384-well white, medium binding microtiter plates (Greiner). Kinase reactions were initiated by combining test compounds, ATP, substrate (PIP2), and kinase in a 20 μL volume in a buffer solution. The standard PI3Kalpha assay buffer is composed 50 mM Tris, pH 7.5, 1 mM EGTA, 10 mM MgCl2, 1 mM DTT and 0.03% CHAPS. The standard assay concentrations for enzyme, ATP, and substrate are 1.5 nM, 1 μM, and 10 μM, respectively. The reaction mixture was incubated at ambient temperature for approximately 2 h. Following the kinase reaction, a 10 μL aliquot of luciferase-luciferin mix (Promega Kinase-Glo) was added and the chemiluminescence signal measured using a Victor2 plate reader (Perkin Elmer). Total ATP consumption was limited to 40-60% and IC50 values of control compounds correlate well with literature references. Substituting PI3Kα with PI3KIβ, […], or […], the inhibitory activity of the compounds for the other isoforms of I3K were measured.
`Cc1nc2ccc(-c3ccc4c(c3)CN(C(=O)N3CCC(O)(C(F)(F)F)CC3c3ccc(F)c(F)c3)CCO4)cc2[nH]1` (stereo not drawn) [Compound 119, 2-(3,4-difluorophenyl)-1-{[7-(2-methyl-1H-benzimidazol-6-yl)-2,3-dihydro-1,4-benzoxazepin-4(5H)-yl]carbonyl}-4-(trifluoromethyl)piperidin-4-ol] showed a pIC50 of 5.52 to 6.00.

For `Cc1nc2ccc(-c3ccc4c(c3)CN(C(=O)N3CCCCC3c3cc(C(F)(F)F)cc(C(F)(F)F)c3)CCO4)cc2[nH]1` (stereo not drawn) [Compound 115, 4-({2-[3,5-bis(trifluoromethyl)phenyl]piperidin-1-yl}carbonyl)-7-(2-methyl-1H-benzimidazol-6-yl)-2,3,4,5-tetrahydro-1,4-benzoxazepine], the pIC50 was 5.52 to 6.00. The molecule `CCOC(=O)CN(Cc1ccccc1)C(=O)N1CCOc2ccc(-c3ccc4nc(C)[nH]c4c3)cc2C1` [Compound 151, ethyl N-{[7-(2-methyl-1H-benzimidazol-6-yl)-2,3-dihydro-1,4-benzoxazepin-4(5H)-yl]carbonyl}-N-(phenylmethyl)glycinate] showed a negative logarithm of the IC50 (pIC50) of 5.52 to 6.00. On the same count and under the same terms, then `Cc1nc2ccc(-c3ccc4c(c3)CN(C(=O)N3CC[C@@H](O)C3)CCO4)cc2[nH]1` [Compound 78, (3R)-1-{[7-(2-methyl-1H-benzimidazol-6-yl)-2,3-dihydro-1,4-benzoxazepin-4(5H)-yl]carbonyl}pyrrolidin-3-ol], with 6.00 to 6.30.

A further test addresses mTORC1 (mTOR/GbL/Raptor) (Homo sapiens, UniProt P42345). Briefly: mTOR/GbL/Raptor (mTORC1) ELISA Assay. Type of test: biochemical. The conditions noted are these: 0.2 nM mTORC1, 10 μM ATP, 50 nM NHis-tagged 4E-BP1; phosphorylation of 4E-BP1; read-out: IC50. The method, then: mTOR/GbL/Raptor (mTORC1) ELISA Assay
The measurement of mTORC1 enzyme activity was performed in an ELISA assay format following the phosphorylation of 4E-BP1 protein. All experiments were performed in the 384-well format. Generally, 0.5 μL DMSO containing varying concentrations of the test compound was mixed with 15 μL enzyme solution. Kinase reactions were initiated with the addition of 15 μL of substrates-containing solution. The assay conditions were as follows; 0.2 nM mTORC1, 10 μM ATP and 50 nM NHis-tagged 4E-BP1 in 20 mM Hepes, pH 7.2, 1 mM DTT, 50 mM NaCl, 10 mM MnCl2, 0.02 mg/mL BSA, 0.01% CHAPS, 50 mM β-glycerophosphate. Following an incubation of 120 minutes at ambient temperature, 20 μL of the reaction volume was transferred to a Ni-Chelate-coated 384-well plate. The binding step of the 4E-BP1 protein proceeded for 60 minutes, followed by washing 4 times each with 50 μL of Tris-buffered saline solution (TBS). Anti-phospho-4E-BP1 rabbit-IgG (20 μL, 1:5000) in 5% BSA-TBST (0.2% Tween-20 in TBS) was added and further incubated for 60 minutes. Incubation with a secondary HRP-tagged anti-IgG was similarly performed after washing off the primary antibody (4 washes of 50 μL). Following the final wash step with TBST, 20 μL of SuperSignal ELISA Femto (Pierce Biotechnology) was added and the luminescence measured using an EnVision plate reader.
In general terms: ELISA stands for enzyme-linked immunosorbent assay.
For the molecule `CC1CCN(C(=O)N2CCOc3ccc(-c4cnc(N)cn4)cc3C2)CC1` [Compound 4, 5-{4-[(4-methylpiperidin-1-yl)carbonyl]-2,3,4,5-tetrahydro-1,4-benzoxazepin-7-yl}pyrazin-2-amine], the pIC50 was 5.59 to 6.15. Same read-out and setting: the same measure for `CC1CCN(C(=O)N2CCOc3ccc(-c4cc(N)[nH]n4)cc3C2)CC1` [Compound 10, 3-{4-[(4-methylpiperidin-1-yl)carbonyl]-2,3,4,5-tetrahydro-1,4-benzoxazepin-7-yl}-1H-pyrazol-5-amine]: 5.59 to 6.15; for `CC1CCN(C(=O)N2CCOc3ccc(-c4ccc(N)nn4)cc3C2)CC1` [Compound 1, 6-{4-[(4-methylpiperidin-1-yl)carbonyl]-2,3,4,5-tetrahydro-1,4-benzoxazepin-7-yl}pyridazin-3-amine]: 5.59 to 6.15. `Cc1nc2ccc(-c3ccc4c(c3)CN(C(=O)N3CCC(O)(c5ccc(C(F)(F)F)cc5)CC3)CCO4)cc2[nH]1` [Compound 141, 1-{[7-(2-methyl-1H-benzimidazol-6-yl)-2,3-dihydro-1,4-benzoxazepin-4(5H)-yl]carbonyl}-4-[4-(trifluoromethyl)phenyl]piperidin-4-ol]: the negative logarithm of the IC50 (pIC50) is 6.15 to 6.60.

For the molecule `Cc1nc2ccc(-c3ccc4c(c3)CN(C(=O)NC3[C@H]5C[C@@H]6C[C@@H](C[C@H]3C6)C5)CCO4)cc2[nH]1` (stereo partly drawn) [Compound 149, 7-(2-methyl-1H-benzimidazol-6-yl)-N-[(1r,3r,5R,7R)-tricyclo[3.3.1.1~3,7~]dec-2-yl]-2,3-dihydro-1,4-benzoxazepine-4(5H)-carboxamide], the pIC50 was 5.59 to 6.15.

As for `Cc1nc2ccc(-c3ccc4c(c3)CN(C(=O)N3CCCC[C@H]3c3ccccc3)CCO4)cc2[nH]1` [Compound 65, 7-(2-methyl-1H-benzimidazol-6-yl)-4-{[(2S)-2-phenylpiperidin-1-yl]carbonyl}-2,3,4,5-tetrahydro-1,4-benzoxazepine], the pIC50 was no less than 7.30. The same measure, in the same setting: the same measure for `Cc1nc2ccc(-c3ccc4c(c3)CN(C(=O)N3CCCCC3c3ccc(F)cc3C)CCO4)cc2[nH]1` (stereo not drawn) [Compound 117, 4-{[2-(4-fluoro-2-methylphenyl)piperidin-1-yl]carbonyl}-7-(2-methyl-1H-benzimidazol-6-yl)-2,3,4,5-tetrahydro-1,4-benzoxazepine]: 5.59 to 6.15; for `CCC1CC2(CCN(C(=O)N3CCOc4ccc(-c5ccc6nc(C)[nH]c6c5)cc4C3)CC2)CC(=O)N1` (stereo not drawn) [Compound 155, 4-ethyl-9-{[7-(2-methyl-1H-benzimidazol-6-yl)-2,3-dihydro-1,4-benzoxazepin-4(5H)-yl]carbonyl}-3,9-diazaspiro[5.5]undecan-2-one]: 6.15 to 6.60. Same read-out and setting: then `Cc1nc2ccc(-c3ccc4c(c3)CN(C(=O)N3CCN(Cc5c(F)cccc5Cl)CC3)CCO4)cc2[nH]1` [Compound 152, 4-({4-[(2-chloro-6-fluorophenyl)methyl]piperazin-1-yl}carbonyl)-7-(2-methyl-1H-benzimidazol-6-yl)-2,3,4,5-tetrahydro-1,4-benzoxazepine], with 6.15 to 6.60; and `Cc1nc2ccc(-c3ccc4c(c3)CN(C(=O)N3CCN(c5ccccc5F)CC3)CCO4)cc2[nH]1` [Compound 165, 4-{[4-(2-fluorophenyl)piperazin-1-yl]carbonyl}-7-(2-methyl-1H-benzimidazol-6-yl)-2,3,4,5-tetrahydro-1,4-benzoxazepine], with 5.59 to 6.15; and `Nc1cnc(-c2ccc3c(c2)CN(C(=O)N2CCC(C(F)(F)F)CC2)CCO3)cn1` [Compound 6, 5-(4-{[4-(trifluoromethyl)piperidin-1-yl]carbonyl}-2,3,4,5-tetrahydro-1,4-benzoxazepin-7-yl)pyrazin-2-amine], with 6.15 to 6.60. On the same count and under the same terms, then `Cc1nc2ccc(-c3ccc4c(c3)CN(C(=O)N3[C@@H]5CC[C@H]3C[C@@H](N)C5)CCO4)cc2[nH]1` [Compound 77, 8-{[7-(2-methyl-1H-benzimidazol-6-yl)-2,3-dihydro-1,4-benzoxazepin-4(5H)-yl]carbonyl}-8-azabicyclo[3.2.1]octan-3-(endo)-amine], with 5.59 to 6.15. Consider `Cc1nc2ccc(-c3ccc4c(c3)CN(C(=O)N3CCCCC3c3ccccc3C)CCO4)cc2[nH]1` (stereo not drawn) [Compound 126, 7-(2-methyl-1H-benzimidazol-6-yl)-4-{[2-(2-methylphenyl)piperidin-1-yl]carbonyl}-2,3,4,5-tetrahydro-1,4-benzoxazepine], for which the negative-log IC50 (pIC50) is 5.59 to 6.15. With `CCCCN(Cc1ccccc1)C(=O)N1CCOc2ccc(-c3ccc4nc(C)[nH]c4c3)cc2C1` [Compound 173, N-butyl-7-(2-methyl-1H-benzimidazol-6-yl)-N-(phenylmethyl)-2,3-dihydro-1,4-benzoxazepine-4(5H)-carboxamide], the negative logarithm of the IC50 (pIC50) was 6.15 to 6.60. On the same count and under the same terms, the same measure for `Cc1nc2ccc(-c3ccc4c(c3)CN(C(=O)N3CCC(Cc5ccccc5)CC3)CCO4)cc2[nH]1` [Compound 171, 7-(2-methyl-1H-benzimidazol-6-yl)-4-{[4-(phenylmethyl)piperidin-1-yl]carbonyl}-2,3,4,5-tetrahydro-1,4-benzoxazepine]: 6.15 to 6.60; for `COc1cccc(N2CCN(C(=O)N3CCOc4ccc(-c5ccc6nc(C)[nH]c6c5)cc4C3)CC2)c1` [Compound 160, 7-(2-methyl-1H-benzimidazol-6-yl)-4-({4-[3-(methyloxy)phenyl]piperazin-1-yl}carbonyl)-2,3,4,5-tetrahydro-1,4-benzoxazepine]: 5.59 to 6.15; for `Cc1nc2ccc(-c3ccc4c(c3)CN(C(=O)N3CCN(C)C(=O)C3)CCO4)cc2[nH]1` [Compound 146, 1-methyl-4-{[7-(2-methyl-1H-benzimidazol-6-yl)-2,3-dihydro-1,4-benzoxazepin-4(5H)-yl]carbonyl}piperazin-2-one]: 6.15 to 6.60. Turning to `Cc1nc2ccc(-c3ccc4c(c3)CN(C(=O)N3CCN(c5ccccc5Cl)CC3)CCO4)cc2[nH]1` [Compound 159, 4-{[4-(2-chlorophenyl)piperazin-1-yl]carbonyl}-7-(2-methyl-1H-benzimidazol-6-yl)-2,3,4,5-tetrahydro-1,4-benzoxazepine], the pIC50 is 5.59 to 6.15. On the same count and under the same terms, the same measure for `Cc1nc2ccc(-c3ccc4c(c3)CN(C(=O)N3CCCCC3Cc3ccccc3)CCO4)cc2[nH]1` (stereo not drawn) [Compound 104, 7-(2-methyl-1H-benzimidazol-6-yl)-4-{[2-(phenylmethyl)piperidin-1-yl]carbonyl}-2,3,4,5-tetrahydro-1,4-benzoxazepine]: 6.15 to 6.60; for `Cc1nc2cc(-c3ccc4c(c3)CN(C(=O)N3CC[C@@](C)(O)C[C@@H]3c3ccccc3)CCO4)ccc2[nH]1` (racemic) [Compound 133, (±)-(2R,4R)-4-methyl-1-{[7-(2-methyl-1H-benzimidazol-5-yl)-2,3-dihydro-1,4-benzoxazepin-4(5H)-yl]carbonyl}-2-phenylpiperidin-4-ol]: 5.59 to 6.15.

For orientation: pIC50 means the negative decadic logarithm of the IC50, by convention in mol/L.
